Assays:
[1] = system: primary CLL cells; test: Cytotoxicity, TMRE flow cytometry viability, primary CLL cells (Example II.1); format: cell-based; conditions: Homo sapiens, CLL cell, 6 hours, TMRE positive cells normalized to control, ratio to PF670462, <1 = higher cytotoxicity than PF670462, read-out: Viability of cells, Compound of formula I (100 μM), relative to PF670462 (100 μM), CLL primary cells
Experimental: (§1) The leukemia and lymphoma-derived cell lines [MEC-1 cell line (derived from chronic lymphocytic leukemia—CLL), Nalm-16 (acute lymphocytic leukemia—ALL), K562 (chronic myeloid leukemia—CML), HL-60 (acute myeloid leukemia—AML), Maver-1 and Mino (mantle cell lymphoma—MCL), BL-41 (Burkitt lymphoma—BL), WSU-NHL (follicular lymphoma—FL), SUDHL (diffuse large B-cell lymphoma—DLBCL)], primary CLL cells and nonmalignant control primary cells were cultured in suspension in flasks under the following conditions: RPMI 1640 medium (Hyclone) supplemented with 10% fetal bovine serum (FBS, Gibco) and 1% penicillin/streptomycin (Life Technologies), 37° C., 5% CO2 and 95% relative humidity, with optimal culture cell density 5×10^6 cells/mL in case of primary cells and 0.5-1×10^6 cells/mL in case of cell lines. The adherent cell lines [A375 (derived from malignant melanoma), MDA-MB-231 and MCF-7 (breast cancer), MIA-PA-CA and PANC1 (pancreatic cancer), PC3 (prostate cancer), OVCAR4 (ovarian cancer) and HEPG2 (hepatocellular carcinoma)] were cultured on plates under the same conditions using RPMI1640 or DMEM medium (Gibco) according to instructions provided by the distributor (DSMZ/ATCC).
(§2) Cytotoxicity of compounds of formula I was tested in two models representative for leukemia (primary CLL cells) and lymphoma (Maver-1 cells). The primary CLL cells and Maver-1 cells (MCL-derived) were incubated with inhibitors at 100 μM concentration or corresponding amount of solvent (DMSO, Sigma Aldrich) as 0.1×10^6 cells/200 μl per well in a 96-well plate. Experiments were performed in technical duplicates. Viability of cells was assessed after 6 hours in case of primary CLL cells and after 24 hours in case of Maver-1 cells.
(§3) Apoptosis-induced reduction of mitochondrial potential is detected as lower TMRE fluorescence. […] Relative values are presented, showing ratio to the effect of PF670462 (as the closest prior art). Relative value <1 indicates a higher cytotoxicity than PF670462.

[2] = system: Maver-1 cells (mantle cell lymphoma); test: Cytotoxicity, TMRE flow cytometry viability, Maver-1 cells (Example II.1); format: cell-based; conditions: Homo sapiens, Maver1, 24 hours, TMRE positive cells normalized to control, ratio to PF670462, <1 = higher cytotoxicity than PF670462, read-out: Viability of cells, Compound of formula I (100 μM), relative to PF670462 (100 μM), Maver-1 cells (mantle cell lymphoma)
Experimental: as §1, §2, §3

Row | Structure (SMILES) | viability at 100 µM [1] [%] | viability at 100 µM [2] [%]
1 | Clc1cccc(-c2ncn(C3CCCCC3)c2-c2ccnc3[nH]ccc23)c1 [Preparative Example 5, 4-(4-(3-chlorophenyl)-1-cyclohexyl-1H-imidazol-5-yl)-1H-pyrrolo[2,3-b]pyridine] | 24 | 54
2 | Brc1cccc(-c2ncn(C3CCCCC3)c2-c2ccnc3[nH]ccc23)c1 [Preparative Example 6, 4-(4-(3-bromophenyl)-1-cyclohexyl-1H-imidazol-5-yl)-1H-pyrrolo[2,3-b]pyridine] | 37 | 42
3 | Clc1ccc(-c2ncn(C3CCCCC3)c2-c2ccnc3[nH]ccc23)c(Cl)c1 [Preparative Example 7] | 34 | 84
4 | c1ccc(-c2ncn(C3CCCCC3)c2-c2ccnc3[nH]ccc23)cc1 [Preparative Example 8] | 32 | 4
5 | Clc1ccc(-c2ncn(C3CCCCC3)c2-c2ccnc3[nH]ccc23)cc1 [Preparative Example 9, 4-(4-(4-chlorophenyl)-1-cyclohexyl-1H-imidazol-5-yl)-1H-pyrrolo[2,3-b]pyridine] | 50 | 30
6 | Brc1ccc(-c2ncn(C3CCCCC3)c2-c2ccnc3[nH]ccc23)cc1 [Preparative Example 10, 4-(4-(4-bromophenyl)-1-cyclohexyl-1H-imidazol-5-yl)-1H-pyrrolo[2,3-b]pyridine] | 61 | 46
7 | CC(C)(C)OC(=O)N1CCC(n2cnc(-c3ccc(F)cc3)c2-c2ccnc3[nH]ccc23)CC1 [Preparative Example 11, tert-butyl-4-(4-(4-fluorophenyl)-5-(1H-pyrrolo[2,3-b]pyridin-4-yl)-1H-imidazol-1-yl)piperidine-1-carboxylate] | 30 | 6
8 | CN1CCC(n2cnc(-c3ccc(F)cc3)c2-c2ccnc3[nH]ccc23)CC1 [Preparative Example 14, 4-(4-(4-fluorophenyl)-1-(1-methylpiperidin-4-yl)-1H-imidazol-5-yl)-1H-pyrrolo[2,3-b]pyridine] | 77 | 70
9 | Fc1ccc(-c2ncn(C3CCCCCC3)c2-c2ccnc3[nH]ccc23)cc1 [Preparative Example 19, 4-(1-cycloheptyl-4-(4-fluorophenyl)-1H-imidazol-5-yl)-1H-pyrrolo[2,3-b]pyridine] | 22 | 33
10 | Fc1ccc(-c2ncn(Cc3ccccc3)c2-c2ccnc3[nH]ccc23)cc1 [Preparative Example 22, 4-(1-benzyl-4-(4-fluorophenyl)-1H-imidazol-5-yl)-1H-pyrrolo[2,3-b]pyridine] | 17 | 27
11 | CC1(C)CC(Cn2cnc(-c3ccc(F)cc3)c2-c2ccnc3[nH]ccc23)C1 [Preparative Example 29, 4-(1-((3,3-dimethylcyclobutyl)methyl)-4-(4-fluorophenyl)-1H-imidazol-5-yl)-1H-pyrrolo[2,3-b]pyridine] | 21 | 3
12 | COC(=O)[C@H]1CC[C@@H](n2cnc(-c3ccc(F)cc3)c2-c2ccnc3[nH]ccc23)CC1 [Preparative Example 33, Methyl cis-4-(4-(4-fluorophenyl)-5-(1H-pyrrolo[2,3-b]pyridin-4-yl)-1H-imidazol-1-yl)cyclohexane-1-carboxylate] | 63 | 12
13 | COC(=O)[C@H]1CC[C@H](n2cnc(-c3ccc(F)cc3)c2-c2ccnc3[nH]ccc23)CC1 [Preparative Example 34, Methyl trans-4-(4-(4-fluorophenyl)-5-(1H-pyrrolo[2,3-b]pyridin-4-yl)-1H-imidazol-1-yl)cyclohexane-1-carboxylate] | 55 | 89
14 | Fc1ccc(-c2ncn(C3CCC(F)(F)CC3)c2-c2ccnc3[nH]ccc23)cc1 [Preparative Example 35, 4-(1-(4,4-difluorocyclohexyl)-4-(4-fluorophenyl)-1H-imidazol-5-yl)-1H-pyrrolo[2,3-b]pyridine] | 60 | 44
15 | Fc1ccc(-c2ncn([C@H]3CC[C@H](C(F)(F)F)CC3)c2-c2ccnc3[nH]ccc23)cc1 [Preparative Example 36] | 68 | 1
16 | c1cc(-c2c(-c3ccsc3)ncn2C2CCCCC2)c2cc[nH]c2n1 [Preparative Example 42, 4-(1-cyclohexyl-4-(thiophen-3-yl)-1H-imidazol-5-yl)-1H-pyrrolo[2,3-b]pyridine] | 76 | 12
17 | Fc1ccc(-c2ncn(-c3cccnc3)c2-c2ccnc3[nH]ccc23)cc1 [Preparative Example 50, 4-(4-(4-fluorophenyl)-1-(pyridin-3-yl)-1H-imidazol-5-yl)-1H-pyrrolo[2,3-b]pyridine] | 63 | 48
18 | OCc1cc2c(-c3c(-c4ccc(F)cc4)ncn3C3CCCCC3)ccnc2[nH]1 [Preparative Example 56, (4-(1-cyclohexyl-4-(4-fluorophenyl)-1H-imidazol-5-yl)-1H-pyrrolo[2,3-b]pyridin-2-yl)methanol] | 67 | 79
19 | COCc1cc2c(-c3c(-c4ccc(F)cc4)ncn3C3CCCCC3)ccnc2[nH]1 [Preparative Example 60, 4-(1-cyclohexyl-4-(4-fluorophenyl)-1H-imidazol-5-yl)-2-(methoxymethyl)-1H-pyrrolo[2,3-b]pyridine] | 93 | 84
20 | CS(=O)(=O)N1CCC(n2cnc(-c3ccc(F)cc3)c2-c2ccnc3[nH]ccc23)CC1 [Preparative Example 69] | 84 | 85
21 | CCOC(=O)N1CCC(n2cnc(-c3ccc(F)cc3)c2-c2ccnc3[nH]ccc23)CC1 [Preparative Example 70, Ethyl 4-(4-(4-fluorophenyl)-5-(1H-pyrrolo[2,3-b]pyridin-4-yl)-1H-imidazol-1-yl)piperidine-1-carboxylate] | 72 | 11
22 | CNC(=O)N1CCC(n2cnc(-c3ccc(F)cc3)c2-c2ccnc3[nH]ccc23)CC1 [Preparative Example 71, 4-(4-(4-fluorophenyl)-5-(1H-pyrrolo[2,3-b]pyridin-4-yl)-1H-imidazol-1-yl)-N-methylpiperidine-1-carboxamide] | 87 | 87
23 | CC(=O)N[C@H]1CC[C@@H](n2cnc(-c3ccc(F)cc3)c2-c2ccnc3[nH]ccc23)CC1 [Preparative Example 75, N-(cis-4-(4-(4-fluorophenyl)-5-(1H-pyrrolo[2,3-b]pyridin-4-yl)-1H-imidazol-1-yl)cyclohexyl)acetamide] | 83 | 66
24 | Fc1ccc(-c2ncn(CCCOC(F)(F)F)c2-c2ccnc3[nH]ccc23)cc1 [Preparative Example 80] | 49 | 42
25 | Fc1ccc(-c2ncn(Cc3cccs3)c2-c2ccnc3[nH]ccc23)cc1 [Preparative Example 84, 4-(4-(4-fluorophenyl)-1-(thiophen-2-ylmethyl)-1H-imidazol-5-yl)-1H-pyrrolo[2,3-b]pyridine] | 48 | 8
26 | Fc1ccc(-c2ncn(Cc3ccc(OC(F)(F)F)cc3)c2-c2ccnc3[nH]ccc23)cc1 [Preparative Example 85] | 1 | 4
27 | Fc1ccc(-c2ncn(CCc3ccccc3)c2-c2ccnc3[nH]ccc23)cc1 [Preparative Example 87, 4-(4-(4-fluorophenyl)-1-phenethyl-1H-imidazol-5-yl)-1H-pyrrolo[2,3-b]pyridine] | 10 | 3
28 | Fc1ccc(-c2ncn(CC3CCCCC3)c2-c2ccnc3[nH]ccc23)cc1 [Preparative Example 88, 4-(1-(cyclohexylmethyl)-4-(4-fluorophenyl)-1H-imidazol-5-yl)-1H-pyrrolo[2,3-b]pyridine] | 15 | 5
29 | CN(C)[C@H]1C[C@@H](Cn2cnc(-c3ccc(F)cc3)c2-c2ccnc3[nH]ccc23)C1 [Preparative Example 89] | 59 | 70
30 | CN(C)[C@H]1CC[C@@H](n2cnc(-c3ccc(F)cc3)c2-c2ccnc3[nH]ccc23)CC1 [Preparative Example 90] | 23 | 52
